# From US5284947A, “Multiple drug resistance-attenuating compounds” (Abbott Laboratories, priority 1992, dated 1994)
# Like-named read-outs stand apart in the source and are kept apart here.
# Legend:
# KB 3-1 cells (sensitive) = test: Cytotoxicity assay in drug-sensitive cells, MTT; assay type: cell-based; details: Homo sapiens, modulator: none, 72 hours
# Method: (§1) Cytotoxicity assays to determine 50% inhibition of growth (IC50) were done in 96-well tissue culture microtiter trays (Costar, Cambridge, Mass.). Cell growth was determined as follows: KB 3-1 (sensitive) and KB V1 (multiple drug resistant) cells grown in Dulbecco's modified Eagle medium (Gibco BRL, Division of Life Technologies, Inc., Grand Island, N.Y.) were added to each microtiter well at 1×10^4 cells in 200 μL of growth medium in the presence and absence of verapamil, 5-acetylardeemin and 5-acetyl-15b-β-hydroxyardeemin at […]. Anticancer cytotoxic agents adriamycin (ADR), vinblastine (VBL) and vincristine (VCR) (Sigma, St. Louis, Mo.) were added in final concentrations ranging from 0.0001 to 10 μg/mL. Cells were incubated at 37° C. in a humidified atmosphere of 4% CO2 for 72 hours. Cell growth was measured by the reduction of 3-(4,5-dimethyl-thiazol-2-yl)-2,5-diphenyltetrazolium bromide (MTT), added to each well at 0.1 mg/mL. The plates were incubated at 37° C. in humidified 4% CO2 for 3 hours. The trays were spun at 1000×g for 10 minutes, the supernatant removed by aspiration and the residual formazan reduction product dissolved in 100 μL of DMSO. Growth was quantitated by measuring the optical absorbance in each well at 570 nm in a microtiter plate reader.
# [1] = system: KB V1 cells (multiple drug resistant); test: Chemosensitization (cytotoxicity) assay of multiple drug resistant cells, MTT; assay type: cell-based; details: Homo sapiens, KB-V1, 72 h
# Method: as §1
# [2] = system: certain mammalian target cells; details: known compounds; cited from earlier work
smiles,measurement,setting,value
"COc1cccc2c1C(=O)c1c(O)c3c(c(O)c1C2=O)C[C@@](O)(C(=O)CO)C[C@@H]3O[C@H]1C[C@H](N)[C@H](O)[C@H](C)O1 [ADR, adriamycin]",IC50,KB 3-1 cells (sensitive); read-out: ADR-IC50,0.012 µg/mL
same,IC50,[1]; read-out: ADR-IC50,3 µg/mL
"CC[C@]1(O)C[C@@H]2CN(CCc3c([nH]c4ccccc34)[C@@](C(=O)OC)(c3cc4c(cc3OC)N(C)[C@H]3[C@@](O)(C(=O)OC)[C@H](OC(C)=O)[C@]5(CC)C=CCN6CC[C@]43[C@@H]65)C2)C1 [VBL, vinblastine]",IC50,KB 3-1 cells (sensitive); read-out: VBL-IC50,0.001 µg/mL
same,IC50,[1]; read-out: VBL-IC50,1.2 µg/mL
"CC[C@]1(O)C[C@H]2CN(CCc3c([nH]c4ccccc34)[C@@](C(=O)OC)(c3cc4c(cc3OC)N(C=O)[C@H]3[C@@](O)(C(=O)OC)[C@H](OC(C)=O)[C@]5(CC)C=CCN6CC[C@]43[C@@H]65)C2)C1 [VCR, vincristine]",IC50,KB 3-1 cells (sensitive); read-out: VCR-IC50,0.001 µg/mL
same,IC50,[1]; read-out: VCR-IC50,7 µg/mL
"COc1ccc(CCN(C)CCCC(C#N)(c2ccc(OC)c(OC)c2)C(C)C)cc1OC (stereo not drawn) [Verapamil, verapamil]",attenuation of drug resistance,[2],"attenuate, if not reverse, drug resistance in certain mammalian target cells"
CCC1=C[C@@H]2CN3CCc4c([nH]c5ccccc45)[C@@](C(=O)OC)(C2)[C@@H]13 [catharanthine],attenuation of drug resistance,[2],"attenuate, if not reverse, drug resistance in certain mammalian target cells"
COc1ccc([C@@H]2Sc3ccccc3N(CCN(C)C)C(=O)[C@@H]2OC(C)=O)cc1 [diltiazem],attenuation of drug resistance,[2],"attenuate, if not reverse, drug resistance in certain mammalian target cells"
